In general, GI50 refers to the concentration that inhibits growth by half. Read a high GI50 as lower sensitivity of the cells. One may read the IC50 as the concentration needed to halve the response being measured. High values mean weaker potency, low ones greater potency.

The subject of test [1] is SW48 cells. Description: Proliferation assay SW48 (CellTiterGlo, 96 hours). Format: cell-based. The settings on record: Homo sapiens. In a few lines:
(§1)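 Cells in RPMI-1640/10% FCS were seeded overnight (SW48 2'000, DLD1-WRN-KO 1'500 cells/well), then exposed to eight 3-fold compound dilutions at 0.1% DMSO. ATP luminescence relative to a day-0 plate gives % growth (0% stasis, −100% complete kill). GI50 is the geometric mean of ≥2 independent replicates.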
In general terms: Cellular ATP, detected with luciferase, serves as a proxy for viable cell number.

The test system of test [2] is DLD1-WRN-KO cells. Description: Proliferation assay DLD1-WRN-KO (CellTiterGlo, 96 hours), off-target effects. Format: cell-based. The settings on record: Homo sapiens. In a few lines: as §1
For test [3], the target named is WRN helicase (core helicase motif aa N517-P1238) (Homo sapiens (Human), UniProt Q14191). Description: WRN ATPase assay (ADP-Glo), DNA dependent ATP hydrolysis. In kind it is biochemical. The following applies: 3 hours pre-incubation, 300 micromolar ATP, FLAP26 ssDNA; geometric means of at least 2 determinations. The method in brief: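 Uses the WRN core helicase (aa N517-P1238) with single-strand 45-mer FLAP26 DNA in Tris pH 7.5, MgCl2, NaCl, BSA and pluronic buffer. Compound was pre-incubated 3 h with enzyme and ATP; reaction then run with 10 nM WRN, 0.2 nM FLAP26 and 300 µM ATP for 30 min at room temperature. ADP quantified by ADP-Glo luminescence; IC50 from duplicate 4-parameter fits, geometric mean of ≥2 runs.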
Sequence of WRN helicase (core helicase motif aa N517-P1238) (Q14191 517-1238): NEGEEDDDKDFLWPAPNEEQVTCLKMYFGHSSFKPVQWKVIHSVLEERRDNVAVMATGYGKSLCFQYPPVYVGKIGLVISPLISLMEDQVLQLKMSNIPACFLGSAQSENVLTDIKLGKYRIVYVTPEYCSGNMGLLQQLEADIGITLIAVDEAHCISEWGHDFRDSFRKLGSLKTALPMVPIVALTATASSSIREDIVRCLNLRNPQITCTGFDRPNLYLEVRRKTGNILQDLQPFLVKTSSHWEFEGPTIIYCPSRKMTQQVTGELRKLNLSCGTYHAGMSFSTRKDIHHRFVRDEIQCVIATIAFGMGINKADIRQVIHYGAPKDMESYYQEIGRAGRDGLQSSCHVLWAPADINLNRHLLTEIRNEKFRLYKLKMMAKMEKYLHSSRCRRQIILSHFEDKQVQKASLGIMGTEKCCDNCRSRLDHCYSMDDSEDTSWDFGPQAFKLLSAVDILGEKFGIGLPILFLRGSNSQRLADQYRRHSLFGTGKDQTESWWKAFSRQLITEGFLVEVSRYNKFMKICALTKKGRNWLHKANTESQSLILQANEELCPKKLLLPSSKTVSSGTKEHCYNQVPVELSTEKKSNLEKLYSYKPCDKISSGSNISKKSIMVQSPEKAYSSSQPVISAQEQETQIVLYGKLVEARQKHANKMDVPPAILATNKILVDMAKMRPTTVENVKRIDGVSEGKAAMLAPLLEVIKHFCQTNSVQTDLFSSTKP

As to `Cc1cc(C(F)(F)F)ccc1NC(=O)[C@H]1CCc2c(N3CCN(C(=O)c4ncccc4O)CC3)c(=O)n3nc(C4=CCOCC4)nc3n21` [Example 20A, (R)-2-(3,6-dihydro-2H-pyran-4-yl)-6-(4-(3-hydroxypicolinoyl)piperazin-1-yl)-N-(2-methyl-4-(trifluoromethyl)phenyl)-5-oxo-5,7,8,9-tetrahydropyrrolo[1,2-c][1,2,4]triazolo[1,5-a]pyrimidine-9-carboxamide], the GI50 in test [1] was 0.3 µM; in test [2] it was over 10 µM. This compound gave an IC50 in test [3] of 0.09 µM.

Consider `Cc1ncnc(C(=O)N2CCN(c3c4n(c5nc(C6=CCOCC6)nn5c3=O)[C@H](C(=O)Nc3ccc(C(F)(F)F)nc3Cl)C[C@@H]4C)CC2)c1O` [Example 4B, (7S,9S)—N-(2-chloro-6-(trifluoromethyl)pyridin-3-yl)-2-(3,6-dihydro-2H-pyran-4-yl)-6-(4-(5-hydroxy-6-methylpyrimidine-4-carbonyl)piperazin-1-yl)-7-methyl-5-oxo-5,7,8,9-tetrahydropyrrolo[1,2-c][1,2,4]triazolo[1,5-a]pyrimidine-9-carboxamide], for which the GI50 was 6 µM in test [1] and over 10 µM in test [2]. Further, the IC50 in test [3] turned out to be 9 µM.

`O=C(Nc1ccc(C(F)(F)F)cc1)[C@@H]1CCc2c(N3CCN(C(=O)c4ncccc4O)CC3)c(=O)n3nc(C4=CCOCC4)nc3n21` [Example 23B, (S)-2-(3,6-dihydro-2H-pyran-4-yl)-6-(4-(3-hydroxypicolinoyl)piperazin-1-yl)-5-oxo-N-(4-(trifluoromethyl)phenyl)-5,7,8,9-tetrahydropyrrolo[1,2-c][1,2,4]triazolo[1,5-a]pyrimidine-9-carboxamide]: the GI50 in test [1] and in test [2] was over 10 µM in each case. In test [3], this compound had an IC50 of 69 µM.

On to `C[C@@H]1C[C@H](C(=O)Nc2ccc(C(F)(F)F)cc2Cl)n2c1c(N1CCN(C(=O)c3nccc(F)c3O)CC1)c(=O)n1nc(C3=CCOCC3)nc21` [Example 6A, (7R,9R)—N-(2-chloro-4-(trifluoromethyl)phenyl)-2-(3,6-dihydro-2H-pyran-4-yl)-6-(4-(4-fluoro-3-hydroxypicolinoyl)piperazin-1-yl)-7-methyl-5-oxo-5,7,8,9-tetrahydropyrrolo[1,2-c][1,2,4]triazolo[1,5-a]pyrimidine-9-carboxamide], for which the figures for the GI50 in test [1] and in test [2] were 0.02 µM and over 10 µM, respectively. Besides, the IC50 in test [3] was determined as 0.02 µM.

With `Cc1cc(C(F)(F)F)ccc1NC(=O)[C@H]1C[C@@H](C)c2c(N3CCN(C(=O)c4ncccc4O)CC3)c(=O)n3nc(C4=CCOCC4)nc3n21` [Example 15A, (7R,9R)-2-(3,6-dihydro-2H-pyran-4-yl)-6-(4-(3-hydroxypicolinoyl)piperazin-1-yl)-7-methyl-N-(2-methyl-4-(trifluoromethyl)phenyl)-5-oxo-5,7,8,9-tetrahydropyrrolo[1,2-c][1,2,4]triazolo[1,5-a]pyrimidine-9-carboxamide], the GI50 in test [1] was 0.03 µM; in test [2], over 10 µM. In test [3], this compound returned an IC50 of 0.05 µM.

As to `Cc1cc(C(F)(F)F)ccc1NC(=O)[C@H]1C[C@H](C)c2c(N3CCN(C(=O)c4ncccc4O)CC3)c(=O)n3nc(C4=CCOCC4)nc3n21` [Example 15C, (7S,9R)-2-(3,6-dihydro-2H-pyran-4-yl)-6-(4-(3-hydroxypicolinoyl)piperazin-1-yl)-7-methyl-N-(2-methyl-4-(trifluoromethyl)phenyl)-5-oxo-5,7,8,9-tetrahydropyrrolo[1,2-c][1,2,4]triazolo[1,5-a]pyrimidine-9-carboxamide], the GI50 is 0.4 µM in test [1] and over 10 µM in test [2]. In test [3], this compound gave an IC50 of 0.1 µM.

In the case of `C[C@H]1C[C@@H](C(=O)Nc2ccc(C(F)(F)F)cc2Cl)n2c1c(N1CCN(C(=O)c3nccc(Cl)c3O)CC1)c(=O)n1nc(N3CCOCC3)nc21` [Example 1B, (7S,9S)-6-(4-(4-chloro-3-hydroxypicolinoyl)piperazin-1-yl)-N-(2-chloro-4-(trifluoromethyl)phenyl)-7-methyl-2-morpholino-5-oxo-5,7,8,9-tetrahydropyrrolo[1,2-c][1,2,4]triazolo[1,5-a]pyrimidine-9-carboxamide], the GI50 is 9 µM in test [1] and over 10 µM in test [2]. Further, the IC50 in test [3] turned out to be 7 µM.

For the compound `O=C(Nc1ccc(C(F)(F)F)cc1)[C@H]1CCc2c(N3CCN(C(=O)c4ncccc4O)CC3)c(=O)n3nc(C4=CCOCC4)nc3n21` [Example 23A, (R)-2-(3,6-dihydro-2H-pyran-4-yl)-6-(4-(3-hydroxypicolinoyl)piperazin-1-yl)-5-oxo-N-(4-(trifluoromethyl)phenyl)-5,7,8,9-tetrahydropyrrolo[1,2-c][1,2,4]triazolo[1,5-a]pyrimidine-9-carboxamide], the GI50 in test [1] is 0.2 µM; in test [2], over 10 µM. The compound further returned an IC50 in test [3] of 0.05 µM.

`Cc1cc(F)c(O)c(C(=O)N2CCN(c3c4n(c5nc(N6CCOCC6)nn5c3=O)[C@H](C(=O)Nc3ccc(C(F)(F)F)cc3Cl)C[C@@H]4C)CC2)n1` [Example 3B, (7S,9S)—N-(2-chloro-4-(trifluoromethyl)phenyl)-6-(4-(4-fluoro-3-hydroxy-6-methylpicolinoyl)piperazin-1-yl)-7-methyl-2-morpholino-5-oxo-5,7,8,9-tetrahydropyrrolo[1,2-c][1,2,4]triazolo[1,5-a]pyrimidine-9-carboxamide]: the GI50 in test [1] and in test [2] was over 10 µM each time. The same compound returned an IC50 in test [3] of 6 µM.

With `C[C@@H]1C[C@H](C(=O)Nc2ccc(C(F)(F)F)cc2Cl)n2c1c(N1CCN(C(=O)c3nn(C)c(=O)[nH]3)CC1)c(=O)n1nc(C3=CCOCC3)nc21` [Example 7, (7R,9R)—N-(2-chloro-4-(trifluoromethyl)phenyl)-2-(3,6-dihydro-2H-pyran-4-yl)-7-methyl-6-(4-(1-methyl-5-oxo-4,5-dihydro-1H-1,2,4-triazole-3-carbonyl)piperazin-1-yl)-5-oxo-5,7,8,9-tetrahydropyrrolo[1,2-c][1,2,4]triazolo[1,5-a]pyrimidine-9-carboxamide], the GI50 is 0.3 µM in test [1] and over 10 µM in test [2]. The compound further showed an IC50 in test [3] of 0.05 µM.

On to `Cc1ncnc(C(=O)N2CCN(c3c4n(c5nc(C6=CCOCC6)nn5c3=O)[C@H](C(=O)Nc3ccc(C(F)(F)F)cc3Cl)C[C@@H]4C)CC2)c1O` [Example 14B, (7S,9S)—N-(2-chloro-4-(trifluoromethyl)phenyl)-2-(3,6-dihydro-2H-pyran-4-yl)-6-(4-(5-hydroxy-6-methylpyrimidine-4-carbonyl)piperazin-1-yl)-7-methyl-5-oxo-5,7,8,9-tetrahydropyrrolo[1,2-c][1,2,4]triazolo[1,5-a]pyrimidine-9-carboxamide], for which the GI50 in test [1] is 0.7 µM; in test [2], over 10 µM. The compound further registered an IC50 in test [3] of 2 µM.

Regarding `Cc1ncnc(C(=O)N2CCN(c3c4n(c5nc(C6=CCOCC6)nn5c3=O)[C@H](C(=O)Nc3ccc(C(F)(F)F)cc3Cl)C[C@H]4C)C[C@H]2C)c1O` [Example 18C, (7R,9S)—N-(2-chloro-4-(trifluoromethyl)phenyl)-2-(3,6-dihydro-2H-pyran-4-yl)-6-((R)-4-(5-hydroxy-6-methylpyrimidine-4-carbonyl)-3-methylpiperazin-1-yl)-7-methyl-5-oxo-5,7,8,9-tetrahydropyrrolo[1,2-c][1,2,4]triazolo[1,5-a]pyrimidine-9-carboxamide], the GI50 in test [1] and in test [2] was over 10 µM in each case. Also, the IC50 in test [3] was over 10 µM.

In the case of `C[C@H]1C[C@H](C(=O)Nc2ccc(C(F)(F)F)cc2Cl)n2c1c(N1CCN(C(=O)c3nccc(Cl)c3O)CC1)c(=O)n1nc(N3CCOCC3)nc21` [Example 1C, (7S,9R)-6-(4-(4-chloro-3-hydroxypicolinoyl)piperazin-1-yl)-N-(2-chloro-4-(trifluoromethyl)phenyl)-7-methyl-2-morpholino-5-oxo-5,7,8,9-tetrahydropyrrolo[1,2-c][1,2,4]triazolo[1,5-a]pyrimidine-9-carboxamide], the GI50 in test [1] was 0.5 µM; in test [2] it was over 10 µM. The compound also registered an IC50 in test [3] of 0.04 µM.

`Cc1ncnc(C(=O)N2CCN(c3c4n(c5nc(N6CCOCC6)nn5c3=O)[C@H](C(=O)Nc3ccc(C(F)(F)F)cc3Cl)C[C@@H]4C)CC2)c1O` [Example 2B, (7S,9S)—N-(2-chloro-4-(trifluoromethyl)phenyl)-6-(4-(5-hydroxy-6-methylpyrimidine-4-carbonyl)piperazin-1-yl)-7-methyl-2-morpholino-5-oxo-5,7,8,9-tetrahydropyrrolo[1,2-c][1,2,4]triazolo[1,5-a]pyrimidine-9-carboxamide]: the GI50 in test [1] and in test [2] was over 10 µM each time. For the same compound, in test [3], the IC50 was found to be 26 µM.

Regarding `Cc1cc(C(F)(F)F)ccc1NC(=O)[C@@H]1CCc2c(N3CCN(C(=O)c4ncccc4O)CC3)c(=O)n3nc(C4=CCOCC4)nc3n21` [Example 20B, (S)-2-(3,6-dihydro-2H-pyran-4-yl)-6-(4-(3-hydroxypicolinoyl)piperazin-1-yl)-N-(2-methyl-4-(trifluoromethyl)phenyl)-5-oxo-5,7,8,9-tetrahydropyrrolo[1,2-c][1,2,4]triazolo[1,5-a]pyrimidine-9-carboxamide], the GI50 in test [1] and in test [2] was over 10 µM each time. Further, in test [3], the IC50 is over 10 µM.

These data come from patent US20240245694A1, “Tricyclic Compounds and their Uses” (Novartis AG, priority 2022, published 2024).
